Literature values, collected in patent US10285597B2 (dated 2019).

Settings: TOL relative to TOSS (Ain=1 by definition); according to Bouillon et al., Anesthesiology 2004; 101: A503

In the case of `CC(C)c1cccc(C(C)C)c1O` [propofol], the “C50 ratio of propofol for the tolerance of laryngoscopy as well as tolerance of shaking and loud shouting (stimulus intensity Ain for TOL)” value is listed as 2.83.
